# Results as given in ChEMBL document CHEMBL4699609, “Synthesis and biological activities of simplified aplysiatoxin analogs focused on the CH/π interaction” (Bioorg Med Chem Lett, 2020).
# Calls of active or inactive are those of the source. No cut-off for these calls is given here.
# Columns and labels:
# [1] = target: Protein kinase C alpha type (Mus musculus, UniProt P20444); test: Displacement of [3H]-PDBu from PKCalpha C1A domain in CD-1 mouse brain cytosol; type: subcellular
# St-4 = test: Antiproliferative activity against human St-4 cells assessed as cell growth inhibition after 48 hrs by sulforhodamine B assay; type: functional
# LOX IMVI = test: Antiproliferative activity against human LOX IMVI cells assessed as cell growth inhibition after 48 hrs by sulforhodamine B assay; type: functional
# MKN-45 = test: Antiproliferative activity against human MKN-45 cells assessed as cell growth inhibition after 48 hrs by sulforhodamine B assay; type: functional
# NCI-H460 = test: Antiproliferative activity against human NCI-H460 cells assessed as cell growth inhibition after 48 hrs by sulforhodamine B assay; type: functional
# MDA-MB-231 = test: Antiproliferative activity against human MDA-MB-231 cells assessed as cell growth inhibition after 48 hrs by sulforhodamine B assay; type: functional
# [2] = target: Protein kinase C delta type (Mus musculus, UniProt P28867); test: Displacement of [3H]-PDBu from PKCdelta C1B domain in CD-1 mouse brain cytosol; type: subcellular
# Chain of Protein kinase C delta type (P28867 whole entry, the tested form may be a part): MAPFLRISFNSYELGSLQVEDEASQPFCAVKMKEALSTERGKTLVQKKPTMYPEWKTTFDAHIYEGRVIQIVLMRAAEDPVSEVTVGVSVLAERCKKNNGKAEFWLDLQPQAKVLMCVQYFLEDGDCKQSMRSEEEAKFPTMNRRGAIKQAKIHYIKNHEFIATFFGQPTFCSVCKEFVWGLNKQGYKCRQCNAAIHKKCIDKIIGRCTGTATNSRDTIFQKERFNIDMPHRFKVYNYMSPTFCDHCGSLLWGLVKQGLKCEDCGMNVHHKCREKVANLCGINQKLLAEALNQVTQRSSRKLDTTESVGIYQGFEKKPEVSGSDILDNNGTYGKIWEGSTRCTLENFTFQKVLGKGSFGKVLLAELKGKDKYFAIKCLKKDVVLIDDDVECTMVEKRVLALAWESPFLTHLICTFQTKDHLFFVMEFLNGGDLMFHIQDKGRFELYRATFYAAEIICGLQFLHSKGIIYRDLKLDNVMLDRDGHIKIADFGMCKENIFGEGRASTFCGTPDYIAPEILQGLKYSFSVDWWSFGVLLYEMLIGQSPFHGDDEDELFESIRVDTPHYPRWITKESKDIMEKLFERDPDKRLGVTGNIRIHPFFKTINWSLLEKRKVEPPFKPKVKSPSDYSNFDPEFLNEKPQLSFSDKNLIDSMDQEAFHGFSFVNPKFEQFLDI
# HCC 2998 = test: Antiproliferative activity against human HCC 2998 cells assessed as cell growth inhibition after 48 hrs by sulforhodamine B assay; type: functional
# A549 = test: Antiproliferative activity against human A549 cells assessed as cell growth inhibition after 48 hrs by sulforhodamine B assay; type: functional
# SF-295 = test: Antiproliferative activity against human SF-295 cells assessed as cell growth inhibition after 48 hrs by sulforhodamine B assay; type: functional
# [3] = Antiproliferative activity against human HBC-4 cells assessed as cell growth inhibition after 48 hrs by sulforhodamine B assay; type: functional; details: HBC4
# [4] = Induction of inflammation in ICR mouse assessed as increase in relative weight of each ear at 170 nmol measured after 24 hrs; type: tissue-based
# Ear = test: Proinflammatory activity in ICR mouse assessed as increase in relative weight of each ear at 17 nmol measured after 24 hrs; type: functional, tissue-based
SMILES,Ki [1] [nM],GI50 (St-4) [nM],GI50 (LOX IMVI) [nM],GI50 (MKN-45) [nM],GI50 (NCI-H460) [nM],GI50 (MDA-MB-231) [nM],Ki [2] [nM],GI50 (HCC 2998) [nM],GI50 (A549) [nM],GI50 (SF-295) [nM],GI50 [3] [nM],Activity [4],Activity (Ear)
C[C@H]1[C@@H]2C[C@@]3(O[C@H](CCC3(C)C)CC(=O)O[C@@H](CO)CC(=O)O2)O[C@@H]1CCCCc1cccc2cc(O)ccc12,6.4,240,447,479,162,891,0.98,501,759,955,91.2,Toxic,–
C[C@H]1[C@@H]2C[C@@]3(O[C@H](CCC3(C)C)CC(=O)O[C@@H](CO)CC(=O)O2)O[C@@H]1CCCCc1cccc(O)c1,–,–,–,–,–,–,–,–,–,–,–,Toxic,–
C[C@H]1[C@@H]2C[C@@]3(O[C@H](CCC3(C)C)CC(=O)O[C@@H](CO)CC(=O)O2)O[C@@H]1CCCCc1cccc2cc(OCc3ccccc3)ccc12,7.6,52.5,182,195,115,537,0.74,398,692,871,63.1,–,Active
